Measurements: PMC9283742 (Clinical and Translational Science, 2022)
Where two headings read alike, the source gives them in different places.

Experiments:
[1] = administered concomitantly with an itraconazole capsule formulation; cited from earlier work
[2] = assay type: in vivo, human; conditions: for decrease in Cmax: with rabeprazole vs asciminib alone
[3] = 40 mg asciminib b.i.d., cited from earlier work
[4] = aqueous solution; cited from earlier work
[5] = In vitro binding constant of asciminib and cyclodextrin; assay type: physicochemical
[6] = assay type: in vitro ADME; conditions: for dissolution rate: 40 mg asciminib, 900 ml, 37°C
[7] = assay type: in vivo, human; conditions: for AUC(0-inf) / AUC(0-t) / Cmax: human, plasma, 40 mg, adjusted G mean, linear mixed effects model; for AUC(0-inf): AUCinf; for AUC(0-t): AUClast
[8] = weak base; cited from earlier work
[9] = cited from earlier work
[10] = oral, Cohort 2, asciminib ± quinidine
[11] = oral, Cohort 3, asciminib ± rifampicin
[12] = oral, Cohort 5, asciminib ± clarithromycin
[13] = po, Cohort 1, asciminib ± itraconazole (oral solution)
[14] = with clarithromycin vs asciminib alone, cohort 5
[15] = with itraconazole (oral solution) vs asciminib alone, cohort 1
[16] = with itraconazole oral solution vs asciminib alone
[17] = with quinidine vs asciminib alone, cohort 2
[18] = with rifampicin vs asciminib alone, cohort 3

Q: For `CCc1cc(/C(C)=N/OCc2ccc(C3CCCCC3)c(C(F)(F)F)c2)ccc1CN1CC(C(=O)O)C1` [siponimod], which decrease in exposure [1] is on record?
A: Its decrease in exposure is 10%–24%.

Q: Which AUC(0-inf) ([2]; human, plasma, oral, 40 mg) does the source give for `O=C(Nc1ccc(OC(F)(F)Cl)cc1)c1cnc(N2CC[C@@H](O)C2)c(-c2ccn[nH]2)c1` [Asciminib] here?
A: The AUC(0-inf) was 9850 ng·h/mL.

Q: And the AUC(0-t) ([2]; human, plasma, oral, 40 mg)?
A: The AUC(0-t) was 9200 ng·h/mL.

Q: And the Cmax ([2]; human, plasma, oral, 40 mg)?
A: Its Cmax is 943 ng/mL.

Q: What about the AUC(0-inf) ([2]; human, plasma, po, 40 mg) of the same compound?
A: The AUC(0-inf) was 9850 ng·h/mL.

Q: And the AUC(0-t) ([2]; human, plasma, po, 40 mg)?
A: Its AUC(0-t) is 9200 ng·h/mL.

Q: And the Cmax ([2]; human, plasma, po, 40 mg)?
A: The Cmax was 943 ng/mL.

Q: And the half-life ([2]; human, plasma, po, 40 mg)?
A: The half-life was 12.6 h.

Q: What about the “decrease in Cmax” value [2] of the same compound?
A: Its value is 9%.

Q: What about the “decrease in Cmax” value ([2]; listed as asciminib) of the same compound?
A: The value was ~ 9%.

Q: What about the “AUC0–12 h at steady-state, G mean” value ([3]; Japanese subjects (n = 5), GCV% 22.8) of the same compound?
A: Its value is 6450 ng·h/mL.

Q: And the “AUC0–12 h at steady-state, G mean” value ([3]; non-Japanese subjects (n = 8), GCV% 39.4)?
A: Its value is 5370 ng·h/mL.

Q: And the pH-dependent solubility [4]?
A: Its pH-dependent solubility is “high at acidic pH and decreases with increasing pH”.

Q: What about the “drop in binding constant” value ([5]; FaSSIF V2 and 0.3× FeSSIF V2 vs buffer) of the same compound?
A: Its value is ~ 65 fold.

Q: And the binding to cyclodextrin ([5]; acidic pH of FaSSGF and high bile component concentration of FeSSIF V2)?
A: Its binding to cyclodextrin is “practically no binding”.

Q: What about the dissolution rate ([6]; FaSSIF V2 media alone) of the same compound?
A: Its dissolution rate is 87%.

Q: And the flux ([6]; FaSSIF V2 media alone, acceptor volume 12 ml)?
A: Its flux is 1.29 µg/min.

Q: What about the calculated flux ([6]; FaSSIF V2 media alone, membrane area 3.88 cm^2) of the same compound?
A: Its calculated flux is 0.332 μg/min*cm^2.

Q: What about the dissolution rate ([6]; FaSSIF V2 media with added cyclodextrin) of the same compound?
A: The dissolution rate was 105%.

Q: And the calculated flux ([6]; FaSSIF V2 plus cyclodextrin)?
A: Its calculated flux is 0.071 μg/min*cm^2.

Q: What about the flux rate ([6]; FaSSIF V2 plus cyclodextrin) of the same compound?
A: Its flux rate is 0.28 µg/min.

Q: And the “decrease of asciminib flux through a lipid membrane” value ([6]; by cyclodextrin)?
A: Its value is ~ 80%.

Q: What about the AUC(0-inf) [7, 10] of the same compound?
A: Its AUC(0-inf) is 6750 ng·h/mL.

Q: What about the AUC(0-inf) [7, 11] of the same compound?
A: The AUC(0-inf) was 5630 ng·h/mL.

Q: And the AUC(0-inf) [7, 12]?
A: Its AUC(0-inf) is 5740 ng·h/mL.

Q: What about the AUC(0-t) [7, 10] of the same compound?
A: The AUC(0-t) was 6700 ng·h/mL.

Q: What about the AUC(0-t) [7, 11] of the same compound?
A: The AUC(0-t) was 5400 ng·h/mL.

Q: What about the AUC(0-t) [7, 12] of the same compound?
A: Its AUC(0-t) is 5670 ng·h/mL.

Q: What about the Cmax [7, 10] of the same compound?
A: Its Cmax is 618 ng/mL.

Q: And the Cmax [7, 11]?
A: Its Cmax is 559 ng/mL.

Q: And the AUC(0-inf) [7, 13]?
A: Its AUC(0-inf) is 7000 ng·h/mL.

Q: What about the AUC(0-t) [7, 13] of the same compound?
A: Its AUC(0-t) is 6950 ng·h/mL.

Q: And the Cmax [7, 13]?
A: The Cmax was 679 ng/mL.

Q: And the “increase in asciminib exposure” value ([7]; with clarithromycin vs asciminib alone)?
A: Its value is ~ 35%.

Q: What about the “increase in AUCinf” value [7, 14] of the same compound?
A: Its value is 36%.

Q: And the “increase in AUClast” value [7, 14]?
A: Its value is 37%.

Q: What about the “increase in Cmax” value [7, 14] of the same compound?
A: Its value is 19%.

Q: What about the “decrease in G mean of AUCinf” value [7, 15] of the same compound?
A: The value was 40.2%.

Q: And the “decrease in G mean of AUClast” value [7, 15]?
A: The value was 41.2%.

Q: What about the “increase in asciminib exposure” value ([7]; with itraconazole capsule vs asciminib alone) of the same compound?
A: Its value is ~ 3%.

Q: And the “decrease in asciminib Cmax” value [7, 16]?
A: Its value is ~ 50%.

Q: And the “decrease in asciminib exposure (AUC)” value [7, 16]?
A: The value was ~ 40%.

Q: And the “decrease in asciminib Cmax” value ([7]; with itraconazole oral solution vs asciminib alone, listed as asciminib)?
A: Its value is 50.1%.

Q: And the “decrease in asciminib AUC” value ([7]; with quinidine vs asciminib alone)?
A: Its value is 13–16%.

Q: What about the “decrease in AUCinf” value [7, 17] of the same compound?
A: Its value is 12.9%.

Q: What about the “decrease in AUClast” value [7, 17] of the same compound?
A: The value was 16.0%.

Q: What about the “decrease in Cmax” value [7, 17] of the same compound?
A: Its value is 11.3%.

Q: What about the “decrease in asciminib AUC (exposure)” value ([7]; with rifampicin vs asciminib alone) of the same compound?
A: Its value is 13–15%.

Q: And the “decrease in AUCinf” value [7, 18]?
A: Its value is 14.9%.

Q: And the “decrease in AUClast” value [7, 18]?
A: The value was 12.7%.

Q: And the “increase in Cmax” value [7, 18]?
A: The value was 9%.

Q: What about the “decrease in asciminib AUC (exposure)” value ([7]; with rifampicin vs asciminib alone, listed as asciminib) of the same compound?
A: The value was 15%.

Q: What about the pK a [8] of the same compound?
A: The pK a was 4.0.

Q: For `C[C@H]1CN(C2COC2)CCN1c1ccc(Nc2cc(-c3ccnc(N4CCn5c(cc6c5CC(C)(C)C6)C4=O)c3CO)cn(C)c2=O)nc1` [fenebrutinib], which “in vitro binding constant with cyclodextrin” value [9] is on record?
A: Its value is 200,000 /M.
